Test system: haircup moss growth
Test: Drench test (greenhouse, moss growth on soil surface)
Type: in vivo
Settings: 6.25 kg/ha = 20 μL/mL, 20 mL drench onto soil, 19 weeks, 15° C., 0% = untreated control, 100% = no moss growth
Description: The test was carried out under greenhouse conditions.
120 mL of a mixture of steamed field soil and sand (1:1) was filled into transparent cylindrical vessels 5.5 cm in size.
The test formulation, the product CONTANS®, comprising 1×10^9 spores of the strain Coniothyrium minitans CON/M/91-08, was dissolved in water and diluted with water to the desired concentrations. 20 mL of the made-up solutions were pipetted onto the soil in the vessels.
The vessels were covered with a transparent lid.
The vessels remained in the greenhouse for the next 19 weeks, at 15° C. and at natural light conditions. The lids were opened slightly after approximately 2 weeks, and the soil was watered every 3 weeks and kept moist.
The evaluation was effected by estimating, per vessel, the soil surface area which had in the meantime been covered by growth, predominantly haircup moss growth. 0% means an efficacy which corresponds to that of the untreated control, while an efficacy of 100% means that no moss growth was discernible.

Structure (SMILES): CCCCCCCCCC[N+](C)(C)CCCCCCCCCC.[Cl-] [DDAC-C10, Didecyldimethylammonium chloride with alkyl chain length C10]
- Efficacy %: 100%

From patent publication US10869483B2, “Coniothyrium minitans for use against moss growth” (Bayer CropScience Aktiengesellschaft, priority 2015, dated 2020)
